Experimental data: patent EP0412508A1, “Analogues of vasopressin, their preparation and pharmaceutical use” (CESKOSLOVENSKA AKADEMIE VED, priority 1989, dated 1991)

Legend:
Ratten [1] = assay: uterotonic (agonistic or inhibitory) activity according to Holton, modified by Munsick (printed 'Munich'); settings: inhibitory activity expressed as pA2, rat
From the text: (§1) Die biologische Wirksamkeit wurde an Ratten bestimmt: Die uterotonische (agonistische oder inhibitorische) Wirksamkeit wurde nach Holton (Holton, J. Brit. J. Pharmacol. 3, 328, 1948) in der Bearbeitung nach Munich (Endocrinology 66, 451, 1960) bestimmt; die inhibitorische Aktivität wurde ausgedrückt als pA2 (Eggen et al., J. Gen. Physiol. 56, 250, 1970), die pressorische Wirksamkeit wurde an despinalisierten Rattenmännchen nach Krejci et al., (Brit. J. Pharm. Chemother. 30, 497, 1967) bestimmt, die antidiuretische nach Burn (Burn et al., Biol. Stand., Oxford Univ. Press London 1950). Als Standard wurde für den antidiuretischen Test das [1-Desamino,8-D-Arginin]-Vasopressin (dDAVP) verwendet. Eine Übersicht der biologischen Wirksamkeiten ist der Tabelle 1 zu entnehmen.

Ratten [2] = assay: antidiuretic activity according to Burn, standard dDAVP; assay type: in vivo; settings: rat; relative to standard [1-Desamino,8-D-Arginin]-Vasopressin (dDAVP)
From the text: as §1

[3] = tested on: despinalisierten Rattenmännchen; assay: pressor activity on despinalised male rats according to Krejci et al.; assay type: in vivo, Ratten; settings: agonistic activity
From the text: as §1

[2-p-Methyl-phenylalanin,8-D-Homoarginin]-Vasopressin
Uterotonische Wirksamkeit, pA₂ (Ratten [1]): pA₂ = 6,85
Antidiuretische Wirksamkeit (% dDAVP) (Ratten [2]): < 0,1 % dDAVP
Pressorische Wirksamkeit [3]: 0,04 IU/mg
